Experimental data published in PubChem BioAssay (NCI).
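Test compounds were applied to cells in 96-well plates for 48 hours at 5 doses. At the GI50, growth is halved. TGI: concentration producing complete growth inhibition.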

Experiments:
Assay in all cases: NCI anticancer screen, dose series, 48 h
EKVX NSCLC = tested on: EKVX NSCLC
OVCAR-4 ovarian = tested on: OVCAR-4 ovarian
MALME-3M melanoma = tested on: MALME-3M melanoma
NCI-H226 lung = tested on: NCI-H226 lung
MDA-MB-231 breast = tested on: MDA-MB-231 breast
SF-295 CNS = tested on: SF-295 CNS
OVCAR-8 ovarian = tested on: OVCAR-8 ovarian
LOX IMVI melanoma = tested on: LOX IMVI melanoma
ACHN renal = tested on: ACHN renal
UACC-62 melanoma = tested on: UACC-62 melanoma
HS 578T breast = tested on: HS 578T breast
SR leukemia = tested on: SR leukemia
HOP-92 NSCLC = tested on: HOP-92 NSCLC
HCT-15 colon = tested on: HCT-15 colon
A549 NSCLC = tested on: A549 NSCLC
UACC-257 melanoma = tested on: UACC-257 melanoma
SNB-19 CNS = tested on: SNB-19 CNS
IGROV1 ovarian = tested on: IGROV1 ovarian
SK-MEL-2 melanoma = tested on: SK-MEL-2 melanoma
M14 melanoma = tested on: M14 melanoma
OVCAR-3 ovarian = tested on: OVCAR-3 ovarian
NCI/ADR-RES ovarian = tested on: NCI/ADR-RES ovarian
T-47D breast = tested on: T-47D breast
HOP-62 NSCLC = tested on: HOP-62 NSCLC
MCF7 breast = tested on: MCF7 breast
SF-268 CNS = tested on: SF-268 CNS
BT-549 breast = tested on: BT-549 breast
COLO 205 colon = tested on: COLO 205 colon
SK-OV-3 ovarian = tested on: SK-OV-3 ovarian
HT29 colon = tested on: HT29 colon
OVCAR-5 ovarian = tested on: OVCAR-5 ovarian
MOLT-4 leukemia = tested on: MOLT-4 leukemia
SW-620 colon = tested on: SW-620 colon
SN12C renal = tested on: SN12C renal
UO-31 renal = tested on: UO-31 renal
SK-MEL-5 melanoma = tested on: SK-MEL-5 melanoma
NCI-H460 lung = tested on: NCI-H460 lung
SNB-75 CNS = tested on: SNB-75 CNS
NCI-H522 lung = tested on: NCI-H522 lung
PC-3 prostate = tested on: PC-3 prostate
RXF 393 renal = tested on: RXF 393 renal
HCT-116 colon = tested on: HCT-116 colon
DU-145 prostate = tested on: DU-145 prostate
RPMI-8226 leukemia = tested on: RPMI-8226 leukemia
SK-MEL-28 melanoma = tested on: SK-MEL-28 melanoma
786-0 renal = tested on: 786-0 renal
TK-10 renal = tested on: TK-10 renal
HCC-2998 colon = tested on: HCC-2998 colon
KM12 colon = tested on: KM12 colon
CCRF-CEM leukemia = tested on: CCRF-CEM leukemia
SF-539 CNS = tested on: SF-539 CNS
CAKI-1 renal = tested on: CAKI-1 renal
MDA-MB-435 = tested on: MDA-MB-435
K-562 leukemia = tested on: K-562 leukemia
U251 CNS = tested on: U251 CNS
A498 renal = tested on: A498 renal
NCI-H23 lung = tested on: NCI-H23 lung

SMILES: O=S(=O)(O)Oc1cc2c(c(OS(=O)(=O)O)c1)C[C@H](OS(=O)(=O)O)[C@@H](c1ccc(OS(=O)(=O)O)c(OS(=O)(=O)O)c1)O2
- TGI (EKVX NSCLC): > 100 µM
- TGI (OVCAR-4 ovarian): > 100 µM
- TGI (MALME-3M melanoma): > 100 µM
- TGI (NCI-H226 lung): > 100 µM
- TGI (MDA-MB-231 breast): > 100 µM
- TGI (SF-295 CNS): > 100 µM
- TGI (OVCAR-8 ovarian): > 100 µM
- TGI (LOX IMVI melanoma): > 100 µM
- TGI (ACHN renal): > 100 µM
- TGI (UACC-62 melanoma): > 100 µM
- TGI (HS 578T breast): > 100 µM
- TGI (SR leukemia): > 100 µM
- TGI (HOP-92 NSCLC): > 100 µM
- TGI (HCT-15 colon): > 100 µM
- TGI (A549 NSCLC): > 100 µM
- TGI (UACC-257 melanoma): > 100 µM
- TGI (SNB-19 CNS): > 100 µM
- TGI (IGROV1 ovarian): > 100 µM
- TGI (SK-MEL-2 melanoma): > 100 µM
- TGI (M14 melanoma): > 100 µM
- TGI (OVCAR-3 ovarian): > 100 µM
- TGI (NCI/ADR-RES ovarian): > 100 µM
- TGI (T-47D breast): > 100 µM
- TGI (HOP-62 NSCLC): > 100 µM
- TGI (MCF7 breast): > 100 µM
- TGI (SF-268 CNS): > 100 µM
- TGI (BT-549 breast): > 100 µM
- TGI (COLO 205 colon): > 100 µM
- TGI (SK-OV-3 ovarian): > 100 µM
- TGI (HT29 colon): > 100 µM
- TGI (OVCAR-5 ovarian): > 100 µM
- TGI (MOLT-4 leukemia): > 100 µM
- TGI (SW-620 colon): > 100 µM
- TGI (SN12C renal): > 100 µM
- TGI (UO-31 renal): > 100 µM
- TGI (SK-MEL-5 melanoma): > 100 µM
- TGI (NCI-H460 lung): > 100 µM
- TGI (SNB-75 CNS): > 100 µM
- TGI (NCI-H522 lung): > 100 µM
- TGI (PC-3 prostate): > 100 µM

SMILES: C=C1C(=O)O[C@H]2[C@H]1CC/C(COC(=O)NCCc1c[nH]c3ccc(Cl)cc13)=C\CC[C@@]1(C)O[C@@H]21
- GI50 (EKVX NSCLC): 1.73 µM
- TGI (EKVX NSCLC): 3.53 µM
- GI50 (OVCAR-4 ovarian): 1.5 µM
- TGI (OVCAR-4 ovarian): 3.05 µM
- GI50 (MALME-3M melanoma): 1.78 µM
- TGI (MALME-3M melanoma): 3.44 µM
- GI50 (NCI-H226 lung): 1.92 µM
- TGI (NCI-H226 lung): 3.64 µM
- GI50 (MDA-MB-231 breast): 1.84 µM
- TGI (MDA-MB-231 breast): 3.44 µM
- GI50 (RXF 393 renal): 1.54 µM
- TGI (RXF 393 renal): 2.94 µM
- GI50 (HCT-116 colon): 1.56 µM
- TGI (HCT-116 colon): 2.97 µM
- GI50 (SF-295 CNS): 6.53 µM
- TGI (SF-295 CNS): 20.3 µM
- GI50 (DU-145 prostate): 1.61 µM
- TGI (DU-145 prostate): 3.25 µM
- GI50 (OVCAR-8 ovarian): 1.6 µM
- TGI (OVCAR-8 ovarian): 3.26 µM
- GI50 (LOX IMVI melanoma): 1.28 µM
- TGI (LOX IMVI melanoma): 2.68 µM
- GI50 (ACHN renal): 1.54 µM
- TGI (ACHN renal): 2.88 µM
- GI50 (RPMI-8226 leukemia): 1.2 µM
- TGI (RPMI-8226 leukemia): 4.21 µM
- GI50 (SK-MEL-28 melanoma): 1.79 µM
- TGI (SK-MEL-28 melanoma): 3.43 µM
- GI50 (UACC-62 melanoma): 1.61 µM
- TGI (UACC-62 melanoma): 3.07 µM
- GI50 (HS 578T breast): 3.21 µM
- TGI (HS 578T breast): 9.76 µM
- GI50 (SR leukemia): 0.944 µM
- TGI (SR leukemia): 5.95 µM
- GI50 (HOP-92 NSCLC): 1.4 µM
- TGI (HOP-92 NSCLC): 2.84 µM
- GI50 (HCT-15 colon): 1.16 µM
- TGI (HCT-15 colon): 2.66 µM
- GI50 (786-0 renal): 1.38 µM
- TGI (786-0 renal): 2.79 µM
- GI50 (TK-10 renal): 1.59 µM
- TGI (TK-10 renal): 2.97 µM
- GI50 (A549 NSCLC): 2.28 µM
- TGI (A549 NSCLC): 5.84 µM
- GI50 (HCC-2998 colon): 1.96 µM
- TGI (HCC-2998 colon): 4.03 µM
- GI50 (UACC-257 melanoma): 1.72 µM
- TGI (UACC-257 melanoma): 3.19 µM
- GI50 (KM12 colon): 2.64 µM
- TGI (KM12 colon): 7.32 µM
- GI50 (SNB-19 CNS): 3.98 µM
- TGI (SNB-19 CNS): 14.8 µM
- GI50 (CCRF-CEM leukemia): 0.583 µM
- TGI (CCRF-CEM leukemia): 3.07 µM
- GI50 (IGROV1 ovarian): 1.55 µM
- TGI (IGROV1 ovarian): 3.11 µM
- GI50 (SK-MEL-2 melanoma): 1.63 µM
- TGI (SK-MEL-2 melanoma): 3.15 µM
- GI50 (M14 melanoma): 1.61 µM
- TGI (M14 melanoma): 3.13 µM
- GI50 (OVCAR-3 ovarian): 1.77 µM
- TGI (OVCAR-3 ovarian): 3.83 µM
- GI50 (SF-539 CNS): 1.75 µM
- TGI (SF-539 CNS): 3.32 µM
- GI50 (CAKI-1 renal): 1.48 µM
- TGI (CAKI-1 renal): 2.82 µM
- GI50 (NCI/ADR-RES ovarian): 2.74 µM
- TGI (NCI/ADR-RES ovarian): 9.77 µM
- GI50 (HOP-62 NSCLC): 2.18 µM
- TGI (HOP-62 NSCLC): 5.48 µM
- GI50 (SF-268 CNS): 1.77 µM
- TGI (SF-268 CNS): 3.37 µM
- GI50 (MDA-MB-435): 1.52 µM
- TGI (MDA-MB-435): 3 µM
- GI50 (K-562 leukemia): 1.1 µM
- TGI (K-562 leukemia): 5.95 µM
- GI50 (BT-549 breast): 1.44 µM
- TGI (BT-549 breast): 2.99 µM
- GI50 (COLO 205 colon): 1.85 µM
- TGI (COLO 205 colon): 3.59 µM
- GI50 (U251 CNS): 1.8 µM
- TGI (U251 CNS): 3.31 µM
- GI50 (SK-OV-3 ovarian): 13.2 µM
- TGI (SK-OV-3 ovarian): 26 µM
- GI50 (A498 renal): 3.39 µM
- TGI (A498 renal): 14.7 µM
- GI50 (HT29 colon): 1.46 µM
- TGI (HT29 colon): 3.24 µM
- GI50 (OVCAR-5 ovarian): 1.97 µM
- TGI (OVCAR-5 ovarian): 4.19 µM
- GI50 (MOLT-4 leukemia): 1.71 µM
- TGI (MOLT-4 leukemia): 5.27 µM
- GI50 (SW-620 colon): 1.82 µM
- TGI (SW-620 colon): 4.26 µM
- GI50 (NCI-H23 lung): 1.79 µM
- TGI (NCI-H23 lung): 3.49 µM
- GI50 (SN12C renal): 1.64 µM
- TGI (SN12C renal): 3.17 µM
- GI50 (UO-31 renal): 1.31 µM
- TGI (UO-31 renal): 2.59 µM
- GI50 (SK-MEL-5 melanoma): 1.83 µM
- TGI (SK-MEL-5 melanoma): 3.33 µM
- GI50 (NCI-H460 lung): 2.2 µM
- TGI (NCI-H460 lung): 4.64 µM
- GI50 (SNB-75 CNS): 1.33 µM
- TGI (SNB-75 CNS): 2.97 µM
- GI50 (NCI-H522 lung): 1.69 µM
- TGI (NCI-H522 lung): 3.35 µM
- GI50 (PC-3 prostate): 1.72 µM
- TGI (PC-3 prostate): 3.35 µM
